From US20180235213A1, “PLANT HORMONE APPLICATION” (The State of Israel Ministry of Agriculture & Rural …, priority 2015, published 2018)

Assays:
[1] = test system: Picual olives; test: Application of strigolactone analogs by irrigation to olive seedlings; type: in vivo, Olea europaea L.; conditions: for number of growing buds / lateral branches: irrigation to roots twice a week for 6 weeks, 0.03 and 0.3 μM, vs control
Protocol: The effect of application of various analogues of strigolactone (SL) on olives, given to roots by irrigation was examined. Three different SL analogs; […] The seedlings were rooted from cuttings and hardened, and were about 6 months old at the time of the experiment. Growth soil mixture was used as in the nursery. Each strigolactone analog was dissolved in acetone to give a 5.6 mM solution. This solution was then further diluted with distilled water to 0.03 and 0.3 μM. The diluted solution was injected to the roots twice a week for 6 weeks, and subsequently all the growing buds were counted. For each treatment (treated and control groups) 10 plants were measured. Experiments were repeated three times.

[2] = test system: Orobanche aegyptiaca seeds; test: Orobanche Germination Assay (biological activity after stress treatments); type: in vivo
Protocol: The implementation of the strigolactone analogs necessitates a degree of material stability, to ensure their activity on the plant under various growth conditions. Accordingly, the stability of the strigolactone analog GR24 was tested under different environmental conditions. GR24 in acetone stock solution of 5.6 mM was diluted in double distilled water (DDW) or HPC pre-made gel to a concentration of 0.56 μM in eppendorf tubes and was subjected to the following treatments:
GR24 solutions of 0.56 μM, diluted either in DDW or in HPC pre-made gel in eppendorf tubes were incubated in a dry block heater at temperatures of 4° C., 20° C., 40° C., 60° C. digitally set for periods of 3 h, 1 d, 2 d, 4 d, 5 d and 7 d under ambient light.
GR24 solutions of 0.56 μM, diluted either in DDW or in HPC pre-made gel, each in quartz tubes (15 replicates for each treatment) were exposed to UV radiation of λ=312 nm under UV lamp of 600 or 857 μE intensity for periods of 15 min, 30 min or 18 h.
Biological activity was determined by Orobanche Germination Assay: Approximately 30 to 50 seeds of Orobanche aegyptiaca were spread on a glass fiber filter paper disk (9-mm diameter) and put into sterile petri dishes (9-cm diameter) lined with Whatman filter paper wetted with 3 mL of demineralized water. Petri dishes were sealed with parafilm and incubated at 27° C. for preconditioning. After one week of preconditioning period, the glass fiber filter paper disks with Orobanche seeds were removed from the petri dish and dried for 20 min to remove surplus moisture. The disks were transferred to another petri dish within a filter paper ring (outer diameter of 9 cm; inner diameter of 8 cm) wetted with 0.9 mL of water, which maintained a moist environment during the germination bioassay. Forty microliters of the GR24 test solutions were added to the disks. Untreated GR24 at a 0.56 μM concentration was used as a positive control, water or HPC pre-made gel as negative controls. Germination percent was calculated using the counter cell analysis of the IMAGEJ (http://www.//rsbweb.nih.gov/ij/) software. Germinated seeds were distinguished from non-germinated seeds according to the seedling radicles, which are a few millimeters long and visible under a stereomicroscope (Leica MZFLIII, Leica Microsystems, GmbH).
For each of the GR24 treatments fifteen replicates with 30-40 seeds were tested per treatment with 40 μl of 0.56 μM GR24 test solutions pre-treated as described above. The experiment was repeated three times (n=450 seeds).
Next, GR24 was stabilized with Hydroxypropyl Cellulose (HPC), which is a […] medium. Granular HPC [Sigma-Aldrich Israel Ltd., CAS-No. 9004-64-2] […]

[3] = Mass spectrometry analysis of GR24 test solutions (molecular stability); type: physicochemical
Protocol: Mass spectrometry (MS) analysis was performed to GR24 test solutions using the Orbitrap XL (Thermo Fisher Scientific). The samples were injected directly using direct spray injection probe, in 50% acetonitrile solution and at […] flow rate. A full scan was acquired to detect the GR24 peaks, at 60,000 resolution, Maximum ion fill time settings were 300 ms for the high resolution full scan in the Orbitrap analyzer. The spectra are sum of 10 sec acquisition. Results observed by Xcalibur© software of Thermo Fisher Scientific Inc. version 2.0.7. were analyzed manually.
Next, GR24 was stabilized with Hydroxypropyl Cellulose (HPC), which is a […] medium. Granular HPC [Sigma-Aldrich Israel Ltd., CAS-No. 9004-64-2] (1 g) was ground to a fine powder using a mortar and pestle, mixed with sterile distilled water to make about 10 mL of gel, and then allowed to stand for 1 day for complete dissolution at room temperature. Stability of GR24 was tested by both biological activity of the strigolactone and by assessing the molecule using LC-MS.

[4] = test system: olive seedling; test: Application to olive seedling stem under greenhouse conditions (parafilm, flexible or rigid tubes); conditions: in vivo
Protocol: EGO10 either with PVAc, or HPC+glycerin were applied on olive seedling stem by the use of parafilm cover as the apparatus, under greenhouse conditions (FIG. 15). Greenhouse conditions include controlled room temperature of 25° C. In each experiment, 10 plants were used for each treatment. The substances were applied on the stem by a spatula and covered with parafilm.
In attempt to improve the performance of the apparatus, different substances and different cover were used. Four formulations were developed and tested. These formulations are based on polysaccharide-sorbent-humidifier substances while the main difference between them is the viscosity of the final product and the ability to retain and release of the active ingredient (EGO 10). […] The cover consisted of a flexible plastic tube that was cut (FIG. 16A), placed on the seedling stem (FIG. 16B) and wrapped with transparent plaster (FIG. 16C). The plastic tubes were filled with the experimental material (FIG. 16D). Moist cotton was placed on both sides of the tubes to minimize water evaporation (FIG. 16E and FIG. 16F). Bud outgrowth was measured for 30 days.
Rigid plastic tubes were tested in order to determine their efficiency as a delivery device for application of the hormone formulations to plants. At first, eppendorf tubes served as prototype. The tubes ware cut from top to bottom and placed on the stem of seedlings. Each tube was sealed with a small moist cotton at the bottom, filled with 1 ml of the examined material and finally covered with transparent plastic tape (FIGS. 17A-17E). The tubes were filled with (HPC+glycerin), or PVAc and EGO10 In each experiment, 10 plants were used for each treatment. Greenhouse conditions include controlled room temperature of 25° C.
EGO10 (10 μM) or acetone control together with HPC+glycerin or PVAc were applied on the stem of olive cuttings by the use of rigid plastic tubes as described in Example 10 above.
Bud outgrowth of olive cuttings was measured until day 30.

seedling outgrowth with medium plus acetone control [4] | Compound | number of growing buds / lateral branches [1] | concentration at which the effect was most prominent ([1]; irrigation twice a week, 0.03 and 0.3 μM tested) [µM] | biological activity (Orobanche germination) after stress ([2]; 0.56 μM, long term exposure (over 5 days) to temperatures above 40° C., acidic pH solutions, UV irradiation) | biological activity in HPC medium ([2]; GR24 in HPC pre-made gel) | structure of the molecule in HPC medium (LC-MS) ([3]; GR24 in HPC, under the examination conditions) | molecular stability (MS) ([3]; long term exposure (over 5 days) to temperatures above 40° C., acidic pH solutions, UV irradiation)
 | CC1=C[C@H](O/C=C2/C(=O)O[C@@H]3c4ccccc4C[C@H]23)OC1=O (relative stereo) [GR24, (3aR*,8bS*,E)-3-(((R*)-4-methyl-5-oxo-2,5-dihydrofuran-2-yloxy)-methylene)-3,3a,4,8b-tetrahydro-2H-indeno[1,2-b]furan-2-one, reference compound] | significant reduction in number of lateral branches | 0.03 | loses biological activity | stabilized GR24 by increasing its biological activity | remained intact | molecularly degrading
 | CC1=CC(O/C=C2/C(=O)c3c(c4cc(-c5scc6c5OCCO6)ccc4n3C)C2C)OC1=O (centres unmarked) [ST362, (2E)-2-[(2,5-dihydro-4-methyl-5-oxofuran-2-yloxy)methylene]-1,2-dihydro-7-(2,3-dihydrothieno[3,4-b][1,4]dioxin-7-yl)-1,4-dimethyl-cyclopenta[b]indole-3-(4H)-one] | similar, albeit less potent effect |  |  |  |  | 
led to inhibition of seedling outgrowth | polyvinyl acetate [PVAc] |  |  |  |  |  | 
